The values below come from patent US11958842B2, “Substituted phenazines and methods of treating cancer and bacterial diseases” (Adjutec Pharma AS, priority 2016, dated 2024).

Data set [1] relates to methicillin-resistant S. aureus MRSA A4-37. Put plainly: Microbroth dilution MIC. It counts as cell-based. To be noted: compound alone. The procedure: (§1) Day 1: • Plate bacterial strain(s) on appropriate media: • Gram-negative bacteria with ESBLs or carbapenemases: green agar plates with 100 mg/L ampicillin • Gram-negative bacteria without β-lactamases: green agar plates • Gram-positive bacteria (Staphylococci and Enterococci): blood agar plates • Incubate o.n. at 37° C.
(§2) Prepare the Bacterial Inoculum: • Prepare a 0.5 McFarland suspension of bacteria in 0.85% NaCl. (Should be used within 15 min of preparation). • Dilute the 0.5 McFarland suspension 1:100 into MH broth.
(§3) Check the inoculum by diluting the prepared bacterial suspension 1:100 (10 μl bacterial suspension+990 μl 0.85% NaCl). Plate 10 μl of the dilution on MH agar plates (×2). Incubate o.n. at 37° C., count the colonies and calculate the final CFU/ml inoculum in the plate by multiplying the average number of colonies with 10000 and divide by 2. The final inoculum should be between 3-7×10^5 CFU/ml. • Add 50 μl of the prepared bacterial suspension to each well in the microtiter plate except negative growth control.
(§4) Preparation of Compounds/Antibiotics • Calculate the desired concentration-range and volume of the compounds/antibiotics in the assay. For antibiotics this will depend on the MIC to meropenem of the bacterial strains to be tested. Dilute the stock solution in MH broth. Make subsequent 2-fold dilutions in MH broth of the desired concentrations if a concentration range is to be tested (remember the extra dilution factor in the assay plate). Always include extra volume for pipetting. Take into consideration stock solutions that are made in buffers that have an effect on bacterial growth (e.g. DMSO).
(§5) This experimental design was used for the results in Tables 4 and 5 below. In Table 4, inhibitor concentration dependency on the MIC of meropenem was studied.

The test system of data set [2] is vancomycin-resistant E. faecium vanA A1-22. The data set is described as follows: Microbroth dilution MIC. It counts as cell-based. Conditions: compound alone. The procedure:
as §1, §2, §3, §4, §5
For orientation: Broth dilution looks for growth in wells or tubes with falling amounts of substance.

A further data set has as its system hepG2. The data set is described as follows: Cytotoxicity (Example 73, Table 2). It counts as cell-based. Conditions: Homo sapiens; hepG2, 24 hours of incubation; read-out: EC50 (μM) hepG2.
Data set [3] is described as follows: Parallel artificial membrane permeability assay (PAMPA). Conditions: PAMPA, 50 μM in PBS, room temperature, five hours.
A further data set has as its system Molm13 cells. Put plainly: Anti-AML activity, WST-1 viability (Example 72). Format: cell-based. Conditions: Homo sapiens, Molm 13 cells, WST-1. In short, it runs like this:
(§6)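 Rat IPC-81 cells in DMEM with 10% horse serum and Molm13 cells in RPMI with 10% FBS, seeded at 150 000 cells/ml with compound dilution series. After 22 h exposure, WST-1 added for a further 2 h; absorbance read at 450 nm (620 nm reference) as viability.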
Background: Tetrazolium dyes change colour on reduction, which living cells bring about.

For the next data set, the system named is IPC-81 rat AML cells. Put plainly: Anti-AML activity, WST-1 viability (Example 72). Format: cell-based. To be noted: IPC81, IPC-81 cells. Summed up: as §6

Each structure is given as a SMILES string. Read-outs that look alike come from different tables or passages of the source.

Regarding `COc1cccc2c1[n+]([O-])c1cccc(O)c1[n+]2O` [Example 5a, 1-hydroxy-6-methoxyphenazine 5.10-dioxide, reference compound], the MIC A4-37 S. aureus MRSA in data set [1] is below 0.5 µg/mL. In data set [2], the MIC A1-22 E. faecium vanA was below 8 µg/mL. In addition, in the data set on hepG2, the EC50 (as a rule, the midpoint of the concentration-response curve) is 70 µM. The molecule further displayed a LogPeff in data set [3] of −5.29. Further, the concentration for half-maximal inhibition (IC50) (in general, the concentration that inhibits the measured activity by half) stood at 1100 nM with Molm13 cells (2% O2, 24 h of incubation, read-out: Molm 13 IC50 2% O2); 1400 nM in the data set with Molm13 cells (20% O2, 24 h of incubation, read-out: Molm 13 IC50 20% O2); 3200 nM in the data set with IPC-81 rat AML cells (2% O2, 24 h of incubation, WST-1, read-out: IPC-81 IC50 2% O2); 2400 nM in the data set with IPC-81 rat AML cells (20% O2, 24 h of incubation, WST-1, read-out: IPC-81 IC50 20% O2).
